Consider 1 molecule from ChEMBL document CHEMBL5543153, “Discovery of a Potent Dual Son of Sevenless 1 (SOS1) and Epidermal Growth Factor Receptor (EGFR) Inhibitor for the Treatment of Prostate Cancer” (J Med Chem, 2024).

In data set [1] the target is T1, Son of sevenless homolog 1 (Homo sapiens) (UniProt Q07889).
T1 sequence (whole entry): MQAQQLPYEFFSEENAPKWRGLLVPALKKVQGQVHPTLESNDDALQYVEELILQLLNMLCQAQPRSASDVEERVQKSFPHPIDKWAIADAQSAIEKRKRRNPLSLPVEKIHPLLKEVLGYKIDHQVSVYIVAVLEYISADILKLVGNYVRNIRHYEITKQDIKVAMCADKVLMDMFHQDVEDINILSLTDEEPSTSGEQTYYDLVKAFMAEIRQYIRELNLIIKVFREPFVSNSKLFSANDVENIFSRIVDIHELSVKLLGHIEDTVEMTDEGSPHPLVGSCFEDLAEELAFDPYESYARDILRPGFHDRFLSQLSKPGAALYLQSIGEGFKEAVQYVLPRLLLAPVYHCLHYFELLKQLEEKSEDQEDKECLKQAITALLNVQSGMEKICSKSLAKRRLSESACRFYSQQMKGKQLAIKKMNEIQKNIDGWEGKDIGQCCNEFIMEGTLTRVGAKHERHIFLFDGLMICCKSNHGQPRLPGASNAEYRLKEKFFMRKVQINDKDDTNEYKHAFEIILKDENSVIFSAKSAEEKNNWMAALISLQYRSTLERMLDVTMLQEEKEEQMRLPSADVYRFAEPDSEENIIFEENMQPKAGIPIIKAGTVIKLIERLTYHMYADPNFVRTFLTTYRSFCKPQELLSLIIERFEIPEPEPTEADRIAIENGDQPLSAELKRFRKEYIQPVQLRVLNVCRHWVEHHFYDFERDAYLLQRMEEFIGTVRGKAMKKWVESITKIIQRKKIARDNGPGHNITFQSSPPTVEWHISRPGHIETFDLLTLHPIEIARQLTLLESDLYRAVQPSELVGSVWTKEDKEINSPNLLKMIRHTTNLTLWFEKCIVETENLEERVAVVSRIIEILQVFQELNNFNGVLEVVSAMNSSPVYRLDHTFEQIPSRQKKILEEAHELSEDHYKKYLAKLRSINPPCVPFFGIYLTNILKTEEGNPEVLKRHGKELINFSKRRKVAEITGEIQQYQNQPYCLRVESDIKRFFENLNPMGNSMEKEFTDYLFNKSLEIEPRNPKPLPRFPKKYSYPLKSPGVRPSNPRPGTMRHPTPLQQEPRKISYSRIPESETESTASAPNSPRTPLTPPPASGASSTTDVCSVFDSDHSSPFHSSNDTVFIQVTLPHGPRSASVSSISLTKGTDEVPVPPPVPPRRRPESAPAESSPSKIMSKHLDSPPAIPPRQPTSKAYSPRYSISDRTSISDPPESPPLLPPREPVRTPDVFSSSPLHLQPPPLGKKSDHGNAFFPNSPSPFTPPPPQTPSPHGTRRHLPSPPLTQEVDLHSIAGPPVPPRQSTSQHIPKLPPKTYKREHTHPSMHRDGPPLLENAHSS
Briefly: Inhibition of SOS1 in human PC-3 cells assessed as downregulation of ERK phosphorylation at 12.5 uM incubated for 15 mins by Western blotting analysis. It is filed as cell-based.

Another data set deals with PC-3. Put plainly: Antitumor activity against human PC-3 cells xenografted in BALB/c mouse assessed as reduction in number of CD31-positive cells in tumor tissue at ip administrated once every 4 days for 24 days by DAPI staining based immunohistochemical analysis. It counts as functional, organism-based. To be noted: time 24.0 day.
Data set [2] is described as follows: Toxicity in BALB/c mouse xenografted with human PC-3 cells assessed as spleen pathological change at 20 mg/kg,ip administrated once every 4 days for 24 days by hematoxylin and eosin staining based analysis. It counts as organism-based. The note with it: in vivo, 576 h, time 24 day.
Data set [3] in a line: Toxicity in BALB/c mouse xenografted with human PC-3 cells assessed as change in ALT level at 5 mg/kg,ip administrated once every 4 days for 24 days by automatic biochemical analyzer. To be noted: in vivo, 576 h, time 24 day. It is filed as organism-based.
Data set [4] can be described thus: Toxicity in BALB/c mouse xenografted with human PC-3 cells assessed as change in blood urea nitrogen level at 5 mg/kg,ip administrated once every 4 days for 24 days by automatic biochemical analyzer. It is filed as organism-based. To be noted: in vivo, 576 h, time 24 day.

Calls of active or inactive are those of the source. No cut-off for these calls is given here.

As to `COc1cc2ncnc(N[C@H](C)c3cccc(F)c3)c2cc1OC1CCOCC1`, the inhibition entry in data set [1] was “Active”. For the same molecule, the Activity entry is “Dose-Dependent Effect” with PC-3, “Toxic” in data set [2], “Non-Toxic” in data set [3] and “Non-Toxic” in data set [4].
